Data as given in article PMC9235088, “Characterization of a new L-carnosine synthase mined from deep-sea sediment metagenome” (Microbial Cell Factories, 2022).

Test system: T1, gene_236976 product (L-carnosine synthase, L-aminopeptidase)
T1 construct: codon-optimised synthetic gene in pET-26b (NcoI/XhoI), his6-tagged, E. coli BL21(DE3), Ni-agarose purified
Experiment: HPLC of L-carnosine formed, Michaelis-Menten fit
Assay type: biochemical, metagenome: deep-sea sediment
Details: 100 mM β-AlaOMe, 0-400 mM L-histidine; assay buffer Na2CO3/NaHCO3 pH 10.0, 30 °C; read-out: L-histidine^b / Km
Description: HPLC of L-carnosine formed, Michaelis-Menten fit on gene_236976 product (L-carnosine synthase, L-aminopeptidase)

Compound: N[C@@H](Cc1cnc[nH]1)C(=O)O [L-histidine]
- Km: 7.73 ± 0.29 mM
